Patent US6407058B1, “Modifying the permeability of physiological barriers” (Eisai Co., Limited, priority 1996, dated 2002)

Experiments:
Assay type in all cases: cell-based
p100/p120 [1] = assay: p100/p120 electrophoretic mobility (band shift) by immunoblotting, MDCK I cells; details: 30 minutes
Experimental: The migration of the cellular proteins p100 and p120 during electrophoresis is increased following PDB-treatment of MDCK I cells. PDB (phorbol-12,13-dibutyrate) is a pharmacological activator of protein kinase C. MDCK I cells are a kidney derived epithelial cell line, with particularly well developed junctional complexes. Cells treated for 30 minutes with either 200 nM PDB (+) or vehicle (−) were then lysed into Laemmli sample buffer, and separated by electrophoresis using 6% acrylamide gels. Proteins were transferred to nitrocellulose and probed with antibodies to p100/p120, and then reprobed with E-cadherin and paxillin antibodies.
MDCK strain I and II cells were provided by Barry Gumbiner (memorial Sloan-Kettering Cancer Center, NY). LLC-PK1 and Caco-2 cells were obtained from the European Collection of Animal Cell Cultures. All cells were maintained at 37° C. under 5% CO2 in humidified air. MDCK strain I and II cells were maintained in MEM containing 10% FCS, 100 U/ml penicillin, 100 μg/ml streptomycin and 2 mM L-glutamine. Caco-2 cells were maintained in MEM containing 15% FCS, 1% non-essential amino acids and 1 μg/ml bovine insulin (Sigma I-6634). LLC-PK1 cells were grown in M199 (Gibco), 10% FCS, 100 U/ml penicillin, 100 μg/ml streptomycin and 2 mM L-glutamine. For whole cell lysate analysis, 10^5 cells were plated on 6.5 mm diameter, 0.4 μm, polycarbonate Transwell filters from Costar, in 0.25 ml of medium. The basolateral chamber contained 0.75 ml of medium. For immunoprecipitation, 5×10^5 cells were plated onto 24 mm Transwell filters, in 2 ml of medium, with 3 ml of medium in the lower chamber. Cells were used 4-7 days after plating. Tissue culture materials were from Gibco. Porcine brain endothelial cells were isolated and grown by modifications of a previously published procedure (Rubin et al., 1991). Brain capillary fragments were plated on dishes coated with rat tail collagen and human fibronectin. The cultures were fed every other day with growth medium composed of 50% astrocyte-conditioned medium and 50% Dulbecco's Modified Eagle Medium containing 10% plasma-derived serum, 125 μg/ml heparin, antibiotics and glutamine. They were incubated in a humidified atmosphere of 10% CO2 at 37° C. When the endothelial cells were approximately 50% confluent (after 4-6 days in culture), they were trypsinized and plated onto collagen-coated polycarbonate Transwell filters (6.5 mm diameter, 0.4 μm pore size, tissue culture treated, Costar Corp, Cambridge, Mass., U.S.A.) in the same medium (250 μl apically, 750 μl basolaterally). After 2-3 days on filters, the medium was switched to a 1:1 mixture of astrocyte-conditioned medium and a Dulbecco's Modified Eagle Medium-based, chemically defined medium (‘N2’, Rubin et al., 1991; Bottenstein and Sato, 1979). The final concentration of plasma-derived serum was 5%. Human umbilical vein endothelial cells were from Clonetics.
Whole cell lysates were prepared by rapidly replacing the culture medium in 6.5 mm with hot Laemmli sample buffer, followed by heating at 100° C. for 5 minutes. Immunoprecipitations were carried out at 4° C. Confluent monolayers of cells were washed rapidly with ice cold PBS (containing 0.9 mM CaCl2 and 0.5 mM MgCl2) before addition of 0.5 ml of the appropriate buffer. The filters were then gently scraped, and the lysate was removed and centrifuged at 14000× g. The supernatant was precleared with 10% (w/v) protein A-Sepharose in lysis buffer for 30-60 minutes. Appropriate primary antibodies were added to the lysate, and after 2-3 hours the immunecomplex was isolated, using rabbit anti-mouse secondary antibodies (Jackson Immunoresearch Labs Inc., West Grove, Pa.) and protein A-Sepharose. The beads were washed fives times with lysis buffer, and the bound protein was solubilized in SDS-sample buffer, followed by heating at 100° C. for 5 minutes.
Cell extracts or immunoprecipitates in SDS sample buffer were resolved by SDS-PAGE. […]

p100/p120 [2] = assay: p100/p120 electrophoretic mobility, human umbilical vein endothelial cells (HUVECs); details: HUVEC, 5 minutes; histamine 10 μM, PDB 200 nM
p100/p120 [3] = assay: p100/p120 electrophoretic mobility, Caco-2 cells; details: 200 nM PDB, 30 minutes
Experimental: (§1) p100 and p120 electrophoretic mobility is affected by PDB in a number of different epithelial cell lines. LLC-PK1, (a porcine kidney cell line), MDCK strain II cells and gut-derived Caco-2 cells were treated with or without 200 nM PDB for 30 minutes, lysed into Laemmli sample buffer, separated by electrophoresis and analysed by immunoblotting.
(§2) MDCK strain I and II cells were provided by Barry Gumbiner (memorial Sloan-Kettering Cancer Center, NY). LLC-PK1 and Caco-2 cells were obtained from the European Collection of Animal Cell Cultures. All cells were maintained at 37° C. under 5% CO2 in humidified air. MDCK strain I and II cells were maintained in MEM containing 10% FCS, 100 U/ml penicillin, 100 μg/ml streptomycin and 2 mM L-glutamine. Caco-2 cells were maintained in MEM containing 15% FCS, 1% non-essential amino acids and 1 μg/ml bovine insulin (Sigma I-6634). LLC-PK1 cells were grown in M199 (Gibco), 10% FCS, 100 U/ml penicillin, 100 μg/ml streptomycin and 2 mM L-glutamine. For whole cell lysate analysis, 10^5 cells were plated on 6.5 mm diameter, 0.4 μm, polycarbonate Transwell filters from Costar, in 0.25 ml of medium. The basolateral chamber contained 0.75 ml of medium. For immunoprecipitation, 5×10^5 cells were plated onto 24 mm Transwell filters, in 2 ml of medium, with 3 ml of medium in the lower chamber. Cells were used 4-7 days after plating. […]

p100/p120 [4] = assay: p100/p120 electrophoretic mobility, MDCK strain II cells; details: 200 nM PDB, 30 minutes
Experimental: as §1, §2

SMILES: CCCC(=O)O[C@@H]1[C@@H](C)[C@@]2(O)[C@@H](C=C(CO)C[C@]3(O)C(=O)C(C)=C[C@@H]23)[C@@H]2C(C)(C)[C@]12OC(=O)CCC [PDB, Phorbol-12,13-dibutyrate]
- migration of p100 and p120 during electrophoresis (p100/p120 [1]; MDCK I cells, 200 nM PDB): migrate as faster, tighter bands
- concentration of maximal effect on p100/p120 mobility (p100/p120 [1]; MDCK I, PDB 1 to 200 nM): 100 nM
- mobility of p120 and p100 (p100/p120 [2]): increased mobility
- migration of p100 and p120 (p100/p120 [3]): less striking, but still present
- migration of p100 and p120 (p100/p120 [4]): increased markedly
